The text below walks through data of ChEMBL document CHEMBL1125442, “Amide bond replacements incorporated into CCK-B selective "dipeptoids"” (J Med Chem, 1992).

The structures appear in SMILES notation. Where “and” joins values, the source holds several entries; their conditions need not be identical. Identical values can stand only once.

Assay [1] is described as follows: Selectivity ratio defined as the ratio of IC50(CCK-A)/IC50(CCK-B).
Assay [2] deals with Cholecystokinin receptor type A (Rattus norvegicus) (UniProt P30551). Kind of assay: Inhibition of [125I]CCK-8 binding to cholecystokinin type A receptor in the rat pancreas.
The target of assay [3] is Gastrin/cholecystokinin type B receptor (Mus musculus) (UniProt P56481). The assay is described as follows: Inhibition of [125I]CCK-8 binding to cholecystokinin type B receptor in the mouse cerebral cortex.

Consider `CC(Cc1c[nH]c2ccccc12)(NC(=O)OC1[C@H]2C[C@@H]3C[C@@H](C[C@H]1C3)C2)/C(S)=N/CCc1ccccc1` (some centres not stated), for which the Ratio in assay [1] was determined as 1.9.

Take `O=C(NC(Cc1c[nH]c2ccccc12)C(=S)NC(CO)Cc1ccccc1)OC1[C@H]2C[C@@H]3C[C@@H](C[C@H]1C3)C2` (some centres not stated): the IC50 came out at 1980 nM in assay [2] and 1590 nM in assay [3].

In the case of `CC(Cc1c[nH]c2ccccc12)(NC(=O)OC1[C@H]2C[C@@H]3C[C@@H](C[C@H]1C3)C2)C(=S)NCCc1ccccc1` (some centres not stated), the IC50 worked out at 1500 nM in assay [2] and 808 nM in assay [3].

As for `CC(Cc1c[nH]c2ccccc12)(NC(=O)OC1[C@H]2C[C@@H]3C[C@@H](C[C@H]1C3)C2)C(O)CCCc1ccccc1` (some centres not stated) [listing 1 of 3 here], the figures for the concentration for half-maximal inhibition (IC50) in assay [2] and in assay [3] were 1230 nM and 595 nM, respectively.

As for `CC(Cc1c[nH]c2ccccc12)(CN(CCc1ccccc1)C(=O)CCC(=O)O)NC(=O)OC1[C@H]2C[C@@H]3C[C@@H](C[C@H]1C3)C2` (some centres not stated), the Ratio in assay [1] was 0.85. The IC50 in assay [2] is 1080 nM; in assay [3] it was 1270 nM.

For the molecule `CN(C(=O)C(Cc1c[nH]c2ccccc12)NC(=O)OC1[C@H]2C[C@@H]3C[C@@H](C[C@H]1C3)C2)C(CO)Cc1ccccc1` (some centres not stated), the Ratio in assay [1] was found to be 0.74. The IC50 in assay [2] was 1080 nM; in assay [3], 1460 nM.

In the case of `CC(Cc1c[nH]c2ccccc12)(NC(=O)OC1[C@H]2C[C@@H]3C[C@@H](C[C@H]1C3)C2)C(O)CCCc1ccccc1` (some centres not stated) [listing 2 of 3 here], in assay [1], the Ratio is 1.3 and 2.1.

Take `CN(CCc1ccccc1)C(=O)C(C)(Cc1c[nH]c2ccccc12)NC(=O)OC1[C@H]2C[C@@H]3C[C@@H](C[C@H]1C3)C2` (some centres not stated): the Ratio in assay [1] is 6.2. For the same molecule, the figures for the IC50 in assay [2] and in assay [3] were 757 nM and 123 nM, respectively.

Turning to `O=C(NC(CNC(CO)Cc1ccccc1)Cc1c[nH]c2ccccc12)OC1[C@H]2C[C@@H]3C[C@@H](C[C@H]1C3)C2` (some centres not stated), the Ratio in assay [1] amounted to 0.11. For the same molecule, the IC50 worked out at 1250 nM in assay [2] and 11500 nM in assay [3].

`CC(CCCCc1ccccc1)(Cc1c[nH]c2ccccc12)NC(=O)OC1[C@H]2C[C@@H]3C[C@@H](C[C@H]1C3)C2` (some centres not stated): in assay [1], the Ratio was determined as 2.2. Besides, the IC50 came to 19500 nM in assay [2] and 8690 nM in assay [3].

Consider `COC(=O)CCC(=O)N[C@H](COC(=O)C(C)(Cc1c[nH]c2ccccc12)NC(=O)OC1[C@H]2C[C@@H]3C[C@@H](C[C@H]1C3)C2)c1ccccc1` (some centres not stated), for which the Ratio in assay [1] is 4.9. The IC50 was 351 nM in assay [2] and 71.2 nM in assay [3].

`CC(Cc1c[nH]c2ccccc12)(NC(=O)OC1[C@H]2C[C@@H]3C[C@@H](C[C@H]1C3)C2)C(=O)SCCc1ccccc1` (some centres not stated): in assay [1], the Ratio was 1.3. Moreover, the IC50 was 1190 nM in assay [2] and 932 nM in assay [3].

For `CCOC(=O)CCC(=O)N(CCc1ccccc1)CC(C)(Cc1c[nH]c2ccccc12)NC(=O)OC1[C@H]2C[C@@H]3C[C@@H](C[C@H]1C3)C2` (some centres not stated), the Ratio in assay [1] came to 2.3. Also, the IC50 in assay [2] was 670 nM; in assay [3], 1630 nM.

`CC(Cc1c[nH]c2ccccc12)(NC(=O)OC1[C@H]2C[C@@H]3C[C@@H](C[C@H]1C3)C2)C(=O)OCCc1ccccc1` (some centres not stated): the Ratio in assay [1] came out at 2. Besides, the IC50 in assay [2] is 1070 nM; in assay [3], 547 nM.

On to `CC(Cc1c[nH]c2ccccc12)(NC(=O)OC1[C@H]2C[C@@H]3C[C@@H](C[C@H]1C3)C2)C(O)CCCc1ccccc1` (some centres not stated) [listing 3 of 3 here], for which the IC50 in assay [2] amounted to 2620 nM; in assay [3], 1970 nM.

In the case of `O=C(NC(Cc1c[nH]c2ccccc12)C(=O)NC(CO)Cc1ccccc1)OC1[C@H]2C[C@@H]3C[C@@H](C[C@H]1C3)C2` (some centres not stated), in assay [1], the Ratio came to 1.3. In addition, the figures for the IC50 in assay [2] and in assay [3] were 1080 nM and 852 nM, respectively.

With `O=C(NC(Cc1c[nH]c2ccccc12)/C(S)=N/C(CO)Cc1ccccc1)OC1[C@H]2C[C@@H]3C[C@@H](C[C@H]1C3)C2` (some centres not stated), the Ratio in assay [1] came to 1.2.

Turning to `CCOC(=O)CCCCCC(=O)N(CCc1ccccc1)CC(C)(Cc1c[nH]c2ccccc12)NC(=O)OC1[C@H]2C[C@@H]3C[C@@H](C[C@H]1C3)C2` (some centres not stated), in assay [1], the Ratio turned out to be 4.1. The results for the IC50 in assay [2] and in assay [3] were 3530 nM and 863 nM, respectively.

On to `O=C(NC(Cc1c[nH]c2ccccc12)C(=O)OC(CO)Cc1ccccc1)OC1[C@H]2C[C@@H]3C[C@@H](C[C@H]1C3)C2` (some centres not stated), for which the Ratio in assay [1] worked out at 1.6. For the same molecule, the IC50 was 2950 nM in assay [2] and 1890 nM in assay [3].
